Legend:
Assay type in all cases: in vivo
[1] = tested on: diet-induced obesity (DIO) mouse model; test: Fed blood glucose, insulin and glucagon, DIO mice
From the text: (§1) DIO mice that have been fed a high fat diet for at least 20 weeks were distributed into 4 different groups balanced by body fat content as determined by MRI and blood glucose. On day 0, all mice were implanted with osmotic pumps (Alzet, Cat #2004), in which the stainless steel flow moderators were replaced with PEEK tubing (DURECT Corporation, Cat #0002496) to allow for MRI measurements during the experiment. Pumps for groups 1 and 2 contained PBS, while pumps used for groups 3 and 4 contained Semaglutide (0.833 mg/mL for […] infusion). The next day (day 1), mice were injected with their respective antibodies: group 1 and group 3: Isotype control (at 20 mg/kg); group 2 and group 4: anti-GDF8 antibody (REGN1033) & anti-Activin A antibody (REGN2477) (at 10 mg/kg each). The antibody injections were repeated on days 4 and 7 and once weekly after that.
(§2) Body composition using MRI and fed blood glucose using a glucometer from tail bleeds were measured weekly in the morning. Mice were also bled for insulin measurements on a weekly basis. An oral glucose tolerance test (OGTT) was performed on day 23. For the OGTT, mice were fasted for 4 hours, and baseline glucose was measured. Subsequently, 2 g/kg glucose was administered to the mice by oral gavage, and glucose was measured again after 30, 60, 90, and 120 minutes. On day 26, 6 hour fasted blood glucose was measured, and mice were bled for insulin assessment as described above. At the end of the study (day 28/29), mice were sacrificed, and tissue (skeletal muscle, adipose, pancreas, heart, spleen, liver) was collected for weight and further analysis. Mouse plasma was used to measure circulating levels of ALT, AST, non-esterified fatty acids (NEFAs), triglycerides (trigs), and cholesterol (chol) on the Advia Chemistry Analyzer from Siemens. One lobe of the liver was fresh frozen to allow for triglyceride extraction and quantification using standard protocols. Another lobe of the liver and the pancreas were fixed in 10% formalin, embedded in paraffin, and sectioned for liver histology. H&E, as well as smooth muscle actin (SMA), staining was performed, and slides were subjected to quantification using Halo software. Paraffin sections of the pancreas were stained for insulin and glucagon to determine beta cell and alpha cell mass, respectively, using Halo software.

[2] = tested on: diet-induced obesity (DIO) mouse model; test: Oral glucose tolerance test (OGTT) and fasted blood glucose, DIO mice
From the text: as §1
as §2, with “Subsequently, 2 g/kg glucose was administered to the mice by oral gavage, and glucose was measured again after 30, 60, 90, and 120 minutes.” left out

[3] = tested on: obese adult male cyno non-human primate (NHP) with NASH; test: Obese NHP study of body weight, liver and metabolic effects of adding myostatin/activin A blockade onto GLP-1R agonism; details: week 12
Procedure: An obese NHP study of the body weight, liver and metabolic effects of adding on myostatin/activin A blockade onto GLP-1R agonism was carried out. FIG. 10 sets forth the study and timeline for obese adult male cyno non-human primate (NHP) with NASH, stratified based on body weight and % body fat, n=10 per arm.
The treatment groups were: • vehicle; • Semaglutide; • Anti-Myostatin+anti-Activin A; • Semaglutide+anti-Myostatin; and • Semaglutide+anti-Myostatin+anti-Activin A. REGN1033 is an anti-Myostatin antibody, and REGN2477 is an anti-Activin A antibody. The GLP-1 agonist employed was Semaglutide. Semaglutide was administered at 10 μg/kg. Anti-Myostatin antibody was administered at 50 mg/kg. Anti-Activin A antibody was administered at 50 mg/kg.
Postmenopausal women received 10 mg/kg (anti-myostatin+anti-activin A) IV, Q2W. Thigh muscle volume was measured via MRI, and android fat mass was measured via iDXA, both over 30 weeks. Obese non-human primates received 50 mg/kg anti-myostatin+50 mg/kg anti-activin A (QW). Total lean mass was measured via iDXA, and total fat mass was measured via iDXA, both over 28 weeks. […]

[4] = tested on: diet-induced obesity (DIO) mouse model; test: Liver triglyceride extraction and liver histology (H&E, SMA staining), DIO mice; details: end of study
From the text: as §1, §2

[5] = tested on: diet-induced obesity (DIO) mouse model; test: Body weight and body composition (MRI) over time in diet-induced obesity (DIO) mouse model; set-up: Body weight changes over time, Mean / Lean mass changes over time, Mean / Fat mass changes over time, Mean: unit not given here; details: DIO mice; for Fat mass changes over time, Mean / Lean mass changes over time, Mean: MRI
From the text: as §1, §2

[6] = tested on: diet-induced obesity (DIO) mouse model; test: Final tissue/organ weights at end of study (day 28/29), DIO mice; details: control group = 0.00 (FIG. 2B: % change vs. control), in %
From the text: DIO mice that have been fed a high fat diet for at least 20 weeks were distributed into 4 different groups balanced by body fat content as determined by MRI and blood glucose. On day 0, all mice were implanted with osmotic pumps (Alzet, Cat #2004), in which the stainless steel flow moderators were replaced with PEEK tubing (DURECT Corporation, Cat #0002496) to allow for MRI measurements during the experiment. Pumps for groups 1 and 2 contained PBS, while pumps used for groups 3 and 4 contained Semaglutide (0.833 mg/mL for 7 ug/day infusion). […]
Body composition using MRI and fed blood glucose using a glucometer from tail bleeds were measured weekly in the morning. […] For the OGTT, mice were fasted for 4 hours, and baseline glucose was measured. Subsequently, 2 g/kg glucose was administered to the mice by oral gavage, and glucose was measured again after 30, 60, 90, and 120 minutes. On day 26, 6 hour fasted blood glucose was measured, and mice were bled for insulin assessment as described above. […] One lobe of the liver was fresh frozen to allow for triglyceride extraction and quantification using standard protocols. […] H&E, as well as smooth muscle actin (SMA), staining was performed, and slides were subjected to quantification using Halo software. […]

[7] = tested on: diet-induced obesity (DIO) mouse model; test: Plasma ALT, AST, NEFA, triglycerides, cholesterol (Advia Chemistry Analyzer), DIO mice; details: end of study, first value of group (mean)
From the text: as §1
as §2, with “Another lobe of the liver and the pancreas were fixed in 10% formalin, embedded in paraffin, and sectioned for liver histology.” left out, “Paraffin sections of the pancreas were stained for insulin and glucagon to determine beta cell and alpha cell mass, respectively, using Halo software.” left out

Semaglutide was tested, and the “fed insulin over time, Mean” value ([1]; Day 6) was 6.2175, the “fed insulin over time, Mean” value ([1]; Day 13) was 2.296 and the “Fed glucose over time, Mean” value ([1]; Day 20, in mg/dL (unit assumed)) was 259.5. The “fed insulin over time, Mean” value ([1]; Day −5 (before treatment)) was 16.285, the “Fed glucagon levels at day 20, Mean” value ([1]; day 20) was 4.106 and the “Area under the curve of OGTT at day 23, Mean” value ([2]; 2 g/kg glucose oral gavage, day 23) was 27698. The “4 hrs fasted glucose levels at day 23, Mean” value ([2]; 4 hrs fasted, day 23, in mg/dL (unit assumed)) was 192.1, the “6 hrs fasted glucose levels at day 26, Mean” value ([2]; 6 hrs fasted, day 26, in mg/dL (unit assumed)) was 172.6 and the “oGTT measurement on day 23 (glucose), Mean” value (from here on “oGTT measurement”) ([2]; Time 0 min) was 192.125. For the same substance, the “oGTT measurement” value ([2]; Time 15 min) was 433.5, the “oGTT measurement” value ([2]; Time 30 min) was 310.75 and the “oGTT measurement” value ([2]; Time 60 min) was 230.75. For the same substance, the “lean mass (in words)” value [3] was “lean mass loss”, the “Liver fat area, Mean” value ([4]; H&E liver histology) was 28.34 and the “SMA positive area (% of fat-free area), Mean” value ([4]; liver SMA staining) was 6.942 % of fat-free area. The “SMA positive area (normalized to nuclei amount), Mean” value ([4]; liver SMA staining) was 14.32, the “Liver triglycerides, Mean” value ([4]; liver tissue) was 153.6 and the “Body weight changes over time, Mean” value ([5]; Day 5) was −11.33. The “Body weight changes over time, Mean” value ([5]; Day 6) was −12.46, the “Body weight changes over time, Mean” value ([5]; Day 9) was −15.25 and the “Body weight changes over time, Mean” value ([5]; Day 12) was −16.20. The “Body weight changes over time, Mean” value ([5]; Day 13) was −15.72, the “Body weight changes over time, Mean” value ([5]; Day 14) was −17.49 and the “Body weight changes over time, Mean” value ([5]; Day 19) was −15.74. For the same substance, the “Body weight changes over time, Mean” value ([5]; Day 23) was −13.16, the “Body weight changes over time, Mean” value ([5]; Day 26) was −12.53 and the “Body weight changes over time, Mean” value ([5]; Day −6 (before treatment)) was 0. For the same substance, the “Fat mass changes over time, Mean” value ([5]; Day 5) was −23.75, the “Lean mass changes over time, Mean” value ([5]; Day 5) was −3.50 and the “Fat mass changes over time, Mean” value ([5]; Day 12) was −33.78. The “Lean mass changes over time, Mean” value ([5]; Day 12) was −4.09, the “Fat mass changes over time, Mean” value ([5]; Day 19) was −34.24 and the “Lean mass changes over time, Mean” value ([5]; Day 19) was −2.43. The “Lean mass changes over time, Mean” value ([5]; Day 25) was −1.93, the “Fat mass changes over time, Mean” value ([5]; Day 26) was −29.52 and the “Fat mass changes over time, Mean” value ([5]; Day −6 (before treatment)) was 0. The “Lean mass changes over time, Mean” value ([5]; Day −6 (before treatment)) was 0, the “decrease in body weight as compared with the control group” value ([5]; vs control group) was “approximately 14%” and the “decrease in lean mass as compared with the control group” value ([5]; vs control group) was 3-4%. For the same substance, the “loss in fat mass compared to the control group” value ([5]; vs control group (Group 1)) was “approximately 18%”, the “Final organ weights, Gonadal Fat, Mean” value [6] was −10.56 and the “Final organ weights, Subq Fat, Mean” value [6] was −22.58. The “Plasma measurements - Liver panel, AST” value [7] was 103.625, the “Plasma measurements - Liver panel, Chol” value [7] was 193.75 and the “Plasma measurements - Liver panel, NEFA” value [7] was 0.5837.

— US20240199728A1, “METHODS OF TREATING OBESITY, DIABETES, AND LIVER DYSFUNCTION” (REGENERON PHARMACEUTICALS, INC., priority 2022, published 2024)
